Laboratory results published in patent US20230372361A1, “USE OF OXYGENATED CHOLESTEROL SULFATES FOR TREATING INFLAMMATORY CONDITIONS” (Durect Corporation, priority 2020, published 2023).
Where two headings read alike, the source gives them in different places.

Key:
[1] = Plasma pharmacokinetics of radioactivity, single intravenous dose; format: in vivo, male Sprague Dawley rats; details: single intravenous (bolus) dose 10 mg/kg; total radioactivity
Procedure: (§1) Nine male Sprague Dawley rats (Group 1) were designated for the pharmacokinetic phase, 3 male Sprague Dawley rats (Group 2) for the excretion mass balance phase, and 7 male Sprague Dawley rats (Group 3) and 9 male Long Evans rats (Group 4) for the tissue distribution phase. All animals received a single intravenous dose of [^14C]-25HC3S at 10 mg/kg and a target radioactivity of 225 μCi/kg. Blood samples were collected from all Group 1 animals at approximately 0.083, 0.25, 0.5, 1, 2, 4, 8, 12, 24, 48, and 72 hours post-dose. Urine and feces were collected from all Group 2 animals periodically through 168 hours post-dose. […] Following blood collection, animals were euthanized by CO2 inhalation and carcasses frozen in a dry ice/hexane bath for processing by quantitative whole body autoradiography. Whole blood, plasma, urine, feces, cage rinse, and cage wash were analyzed for total radioactivity by liquid scintillation counting.

[2] = Tissue distribution by quantitative whole body autoradiography, intravenous; format: in vivo, male Sprague Dawley rats; details: iv 10 mg/kg
Procedure: as §1

[3] = Tissue distribution by quantitative whole body autoradiography, intravenous, pigmented animals; format: in vivo, male Long Evans rats; details: iv 10 mg/kg
Procedure: as §1

[4] = Metabolite profiling of plasma, urine, feces after intravenous dose (HPLC radiodetection, MS); format: in vivo, rats; details: iv 10 mg/kg
Procedure: Plasma pools were made from Group 1 rats at the 0.083, 0.25, 0.5, and 1-hour collection time points.
Urine pools were prepared for Group 2 at 0 to 6 and 6 to 12 hours post-dose. […] Four metabolites present at <10% relative observed intensity in at least 1 sample were M7 (<5% relative observed intensity), M16 (<3% relative observed intensity), M19 (<6% relative observed intensity), and M25 (<5% relative observed intensity).
Feces pools were prepared for Group 2 at 0 to 12, 12 to 24, and 24 to 48 hours post-dose.

[5] = rat, in vivo, po, 75 mg/kg
Procedure: Pancreas and liver concentrations ranged from 23,500 ng equiv./g to 28,100 ng equiv./g. Uveal tract and brain concentrations were lowest relative to the other tissues and were approximately 1000 ng equiv./g. Skin, thymus, prostate, and pituitary tissue concentrations were <3000 ng equiv./g. Remaining tissues had concentrations between 3600 ng-equiv./g and 10,700 ng equiv./g. […] As calculated using AUClast, the tissue:plasma ratios were highest for the small intestine (wall, 15.4) followed by the liver and adrenal gland at 6.96 and 6.64, respectively. High liver and small intestine concentrations are consistent with oral administration and biliary (fecal) excretion.

[6] = Metabolite profiling of plasma and feces after oral dose (radio-HPLC, HPLC/MS); set-up: species or system rats; details: Sprague Dawley, rat, in vivo, 75 mg/kg
Procedure: Radiolabeled components in plasma and feces extracts were profiled and identified using radio-high performance liquid chromatography (HPLC) and high performance liquid chromatography/mass spectrometry (HPLC/MS) methods.
Plasma pools were prepared for Group 1 (75 mg/kg, [14C]-25HC3S) samples collected at 2, 4, and 6 hours post-dose. […] One metabolite M29 was identified as 25-hydroxycholesterol with 37% ROI and a concentration of 1233 ng-equiv./g.
Feces pools were prepared for Group 2 (75 mg/kg, [^14C]-25HC3S) samples collected from 0 to 24, 24 to 48, 48 to 72, 72 to 96, 96 to 120, 120 to 144, and 144 to 168 hours post-dose. A total of eleven metabolites were identified. None of the metabolites were present at ≥5% of dose. Metabolites present at 2-5% of dose were M1(4.5% of total dose and 1%-69% ROI), M3 (4.6% of total dose and 1%-44% ROI), M4 (2.0% of total dose and 0%-10% ROI), M8 (3.1% of total dose and 1%-46% ROI), M29 (1.9% of total dose and 0%-2% ROI), and M30 (3.3% of total dose and 0%-5% ROI).

mean plasma C0 [1]: 25,900 ng-equiv./g
plasma:whole blood AUClast ratio [2]: 0.79
tissue:plasma ratio, liver ([2]; calculated using AUClast): 11.4
tissue:plasma ratio, small intestine (wall) ([2]; calculated using AUClast): 7.44
AUClast in liver ([2]; derived radioactivity): ≤ 364,000 h·ng/g
binding to pigmented or non-pigmented skin or the uveal tract [3]: no difference
plasma or whole blood concentrations versus Sprague Dawley rats ([3]; first 168 hours post-dose): no substantial difference
amount in feces ([4]; pools 0 to 48 hours post-dose): 2 % of dose
share of the exposure (AUC) to 25HC3S related radioactivity in plasma ([4]; up to 1 hour post-dose): approximately 54%
tissue:plasma ratio, adrenal gland ([5]; male, Sprague Dawley): 6.64
tissue:plasma ratio, liver ([5]; male, Sprague Dawley): 6.96
tissue:plasma ratio, small intestine (wall) ([5]; male, Sprague Dawley): 15.4
Cmax in small intestine (wall) [5]: 424,000 ng equiv./g
Cmax in stomach (wall) [5]: 204,000 ng equiv./g
whole blood AUClast [5]: 127,000 h·ng equiv./g
ROI in feces [6]: 0-88%
amount in feces [6]: 71.1 % of total dose
SMILES: C[C@H](CCCC(C)(C)O)[C@H]1CC[C@H]2[C@@H]3CC=C4C[C@@H](OS(=O)(=O)O)CC[C@]4(C)[C@H]3CC[C@]12C [25HC3S, 25-hydroxycholesterol-3-sulfate]
tissue concentrations by 168 hours post-dose [2]: below quantitation limit in all tissues except adrenal gland, harderian gland, liver, and small intestine
tissue distribution of parent and/or metabolites ([2]; Group 3): broadly distributed and detected by quantitative whole body autoradiography in all tissues except the eye (lens)
tissue concentrations by 168 hours post-dose [5]: near or below the quantitation limit in all tissues except adrenal gland and liver
tissue distribution of parent and/or metabolites [5]: broadly distributed and detected by quantitative whole body autoradiography in all tissues except the eye (lens)
